# In US7053122B2, “Therapeutic use of aryl amino acid derivatives” (Pfizer Inc, priority 2002, dated 2006):
# Test system: α2δ subunit derived from porcine brain tissue
# Experiment: radioligand binding assay using [3H]gabapentin and the α2δ subunit
# Conditions: [3H]gabapentin radioligand
# Excerpt: The biological activity of the compounds of the invention may be measured in a radioligand binding assay using [^3H]gabapentin and the α2δ subunit derived from porcine brain tissue (Gee N. S., Brown J. P., Dissanayake V. U. K., Offord J., Thurlow R., Woodruff G. N., J. Biol. Chem., 1996; 271:5776–5879). Results may be expressed in terms of μM or nM α2δ binding affinity.
row,SMILES,α2δ binding affinity [nM]
1,"Cl.NCc1cc(Cl)c(Cl)cc1C(=O)O [Example 2, 2-Aminomethyl-4,5-dichloro-benzoic acid hydrochloride salt]",435
2,"Cl.NCc1cccc(Cl)c1C(=O)O [Example 4, 2-Aminomethyl-6-chloro-benzoic acid hydrochloride salt]",383
3,"Cl.NCc1ccc(Cl)cc1C(=O)O [Example 1, 2-Aminomethyl-5-chloro-benzoic acid hydrochloride salt]",100

# Continued, values first:
row,α2δ binding affinity [nM],SMILES
1,270,"CC(N)c1ccccc1C(=O)O.Cl (centres unmarked) [Example 5, 2-(1-Amino-ethyl)-benzoic acid hydrochlorid salt]"
2,8000,"Cl.NCc1ccc(Cl)cc1-c1noc(=O)[nH]1 [Example 7, 3-(2-Aminomethyl-5-chloro-phenyl)-4-H-[1,2,4]loxadiazol-5-one hydrochloride salt]"
